Measured values as given in US12006294B2, “Therapeutic compounds” (REGENTS OF THE UNIVERSITY OF MINNESOTA, priority 2017, dated 2024).
Entries after “also recorded” stand apart in the source; their conditions may differ. Like-named read-outs stand apart in the source and are kept apart here.

Assays:
mice [1] = experiment: Tail flick assay of drug combinations (morphine or acetaminophen + GA and/or analogs); conditions: acetaminophen:BC1-45-1 ratios 500:1 to 1000:1; acetate
mice [2] = experiment: Acetaminophen hepatotoxicity (ALT, TBARS, survival); conditions: for elevated ALT levels after acetaminophen overdose: delayed administration post APAP administration; for hepatotoxicity of acetaminophen (ALT levels): pretreatment (30 min) before acetaminophen
CAD5 cells = type: cell-based
Hela Cells = experiment: Cellular ER stress model (tunicamycin, WST-8 cell viability); conditions: for AntiERStress (% Cell Survival): HeLa cells, tunicamycin 48 hours, WST-8; for viability at 2.5 µM: Homo sapiens, HeLa, 48 h
C57BL/6J mice = experiment: MOG-induced experimental autoimmune encephalomyelitis (EAE); type: in vivo; conditions: daily treatment starting on PID 10, preliminary results, FIG. 2
[3] = read-out: % Cell Survival Cmpd(2.5 μM) + Tuni, Hela cells, compound 2.5 μM + tunicamycin, WST-8 viability 48 hours after tunicamycin treatment
[4] = read-out: Compounds ERS (vs Tn), ERS activity vs Tuni = % cell survival (compound)/% cell survival (tunicamycin), compound 2.5 μM

SMILES | 1/Elispot (CAD5 cells) | AntiPrion (Number of Cells × 10^4) (CAD5 cells) | EliSpot (Spots/10000 Cells) (CAD5 cells) | Elispot (vs PC) (CAD5 cells) | AntiERStress (% Cell Survival) (Hela Cells) | further results
N=C(N)N/N=C/c1c(Cl)cccc1Cl [BC1-45-1, guanabenz, acetate] | – | – | – | – | – | analgesic synergy with acetaminophen in tail flick assay (mice [1]): exhibited synergy in the analgesic activity; also recorded: provided synergy at all the time points tested; survival rate (mice [2]; all treatment groups (pretreatment and delayed 0.5-8 h post acetaminophen)): 100%; elevated ALT levels after acetaminophen overdose (mice [2]; acetate): reduces elevated levels of ALT; also recorded: limited the hepatotoxicity of acetaminophen; hepatotoxicity of acetaminophen (ALT levels) (mice [2]; acetate): can limit the hepatotoxicity of acetaminophen; also recorded: limited the hepatotoxicity of acetaminophen
N=C(N)N/N=C\c1c(Cl)cccc1Cl [BC1-55-1, (Z)-2-(2,6-dichlorobenzylidene)hydrazinecarboximidamide acetate] | 0.59 | 3 × 10^4 | 2200 | 1.69 | 64.33 | viability at 2.5 µM (Hela Cells; [3]): 22.1%; viability at 2.5 µM (Hela Cells; [4]): 96%; lipid peroxidation products (TBARS assay) (mice [2]; acetaminophen overdose, FIG. 7, acetate): can reduce the lipid peroxidation products; also recorded: limited the elevated lipid peroxidation byproducts; survival rate (mice [2]; delayed administration post APAP): 100%; elevated ALT levels after acetaminophen overdose (mice [2]; acetate): reduces elevated levels of ALT; survival rate (mice [2]; pretreated animals, acetaminophen overdose): 100%; hepatotoxicity of acetaminophen (ALT levels) (mice [2]; acetate): can limit the hepatotoxicity of acetaminophen; also recorded: limited the hepatotoxicity of acetaminophen
CC(=O)N[C@@H](CS)C(=O)O [N-acetyl cysteine] | – | – | – | – | – | elevated ALT levels after acetaminophen overdose (mice [2]): less effective in limiting elevated ALT levels; hepatotoxicity of acetaminophen (ALT levels) (mice [2]): less effective in limiting the hepatotoxicity of acetaminophen; animals died before completion of the study (mice [2]; pretreatment, acetaminophen overdose): Twenty-five; animals died before completion of the study (mice [2]; treated four hours after acetaminophen overdose): Eighty-eight
N=C(N)N/N=C/c1ccc(Cl)cc1 [BC2-13-1, (E)-2-(4-chlorobenzylidene)hydrazinecarboximidamide acetate] | 0.72 | 9 × 10^4 | 1800 | 1.38 | 68.97 | –
N=C(N)N/N=C/c1c(Cl)cccc1C(F)(F)F [BC2-45-1, (E)-2-(2-chloro-6-(trifluoromethyl)benzylidene)hydrazinecarboximidamide acetate] | 0.62 | 10 × 10^4 | 2100 | 1.62 | 99.19 | –
N=C(N)Nn1ccnc1-c1c(Cl)cccc1Cl [BC1-267-2, 1-(2-(2,6-dichlorophenyl)-1H-imidazol-1-yl)guanidine] | 1.00 | 18 × 10^4 | 1300 | 1.00 | 64.26 | viability at 2.5 µM (Hela Cells; [3]): 42.3%; viability at 2.5 µM (Hela Cells; [4]): 102%
N=C(N)N/N=C/c1ccccc1Br [BC1-297-1, (E)-2-(2-bromobenzylidene)hydrazinecarboximidamide acetate] | 0.93 | 8 × 10^4 | 1400 | 1.08 | 90.49 | –
NC(N)=N/N=C/c1ccccc1Cl [Sephin 1, reference compound] | 1.63 | 32 × 10^4 | 800 | 0.62 | 87.19 | ERS (vs Tn) (Hela Cells; % cell survival (compound)/% cell survival (tunicamycin)): 1.80; EAE disease severity (clinical severity score) (C57BL/6J mice): markedly attended the EAE disease severity; EAE disease severity (clinical severity score) (C57BL/6J mice; listed as sephin 1): attends the EAE disease severity
